Laboratory results from ChEMBL document CHEMBL1133312, “S-nitrosothiols as novel, reversible inhibitors of human rhinovirus 3C protease” (Bioorg Med Chem Lett, 2000).
Square brackets hold non-standard residues; d marks the D form. Peptide text beside a SMILES is read from it. Cys(NO) = N[C@@H](CSN=O)C(=O)O

Key:
[1] = test system: rhinovirus B14; test: Compound was evaluated for the inactivation of HRV 14 3C protease activity expressed as kinact; format: functional, human rhinovirus type 14
[2] = test system: rhinovirus B14; test: Compound was evaluated for the inactivation of HRV 14 3C protease activity expressed as KI; format: functional, human rhinovirus type 14

Structure (SMILES) | K inact [1] | Ki [2]
CC(=O)N[C@@H](CCC(=O)O)C(=O)N[C@@H](C)C(=O)N[C@@H](CC(C)C)C(=O)N[C@@H](Cc1ccccc1)C(=O)N[C@@H](CCC(N)=O)C(=O)N[C@@H](CSN=O)C(=O)NCC(=O)O (Ac-EALFQ[Cys(NO)]G-OH) | 0.107 min⁻¹ | 0.02 mM
CC(=O)N[C@@H](C(=O)O)C(C)(C)SN=O | 0.243 min⁻¹ | 1.86 mM
CC(=O)N[C@@H](C(=O)NC1C(O)OC(CO)C(O)C1O)C(C)(C)SN=O (stereo not given in full) | 0.982 min⁻¹ | 5.04 mM
C[C@@H](CSN=O)C(=O)N1CCC[C@H]1C(=O)O | 0.457 min⁻¹ | 2.11 mM
N[C@@H](CCC(=O)N[C@@H](CSN=O)C(=O)NCC(=O)O)C(=O)O [S-NITROSOGLUTATHIONE] | 0.237 min⁻¹ | 0.36 mM
